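Grown in 96-well plates, cells were treated for 48 hours with each compound at five concentrations. Insufficient inhibition: endpoint recorded as highest concentration tested. The concentration for 50% growth inhibition is given as GI50.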 The source made the active and inactive calls. No stated cut-off is given here; in the data, active = GI50 up to about 1.1 µM and inactive = higher. Square brackets hold non-standard residues; d marks the D form. Peptide text beside a SMILES is read from it. * marks the point of attachment. AllylGly = C=CC[CH](N)C(=O)O; Boc = CC(C)(C)OC(=O)*; OtBu = CC(C)(C)O*
What was measured:
Experiment in all cases: NCI anticancer screen, dose series, 48 h
MDA-MB-231 = system: MDA-MB-231
RPMI-8226 = system: RPMI-8226
786-0 = system: 786-0
SK-MEL-5 = system: SK-MEL-5
M14 = system: M14
CCRF-CEM = system: CCRF-CEM
A549 = system: A549
SR = system: SR
A498 = system: A498
NCI-H522 = system: NCI-H522
UACC-62 = system: UACC-62
NCI-H23 = system: NCI-H23
RXF 393 = system: RXF 393
ACHN = system: ACHN
HL-60 = system: HL-60
DU-145 = system: DU-145
MCF7 = system: MCF7
SK-OV-3 = system: SK-OV-3
KM12 = system: KM12
OVCAR-3 = system: OVCAR-3

Row | SMILES | GI50 (MDA-MB-231) | GI50 (RPMI-8226) | GI50 (786-0) | GI50 (SK-MEL-5) | GI50 (M14) | GI50 (CCRF-CEM) | GI50 (A549) | GI50 (SR) | GI50 (A498) | GI50 (NCI-H522) | GI50 (UACC-62) | GI50 (NCI-H23) | GI50 (RXF 393) | GI50 (ACHN) | GI50 (HL-60) | GI50 (DU-145) | GI50 (MCF7) | GI50 (SK-OV-3) | GI50 (KM12) | GI50 (OVCAR-3)
1 | Cc1ccc(/N=N/c2c(O)ccc3cc(S(=O)(=O)O)cc(S(=O)(=O)O)c23)cc1 | > 100 µM (inactive) | < 0.01 µM (active) | > 100 µM (inactive) | > 100 µM (inactive) | > 100 µM (inactive) | > 100 µM (inactive) | > 100 µM (inactive) | > 100 µM (inactive) | > 100 µM (inactive) | > 100 µM (inactive) | > 100 µM (inactive) | > 100 µM (inactive) | > 100 µM (inactive) | > 100 µM (inactive) | > 100 µM (inactive) | > 100 µM (inactive) | > 100 µM (inactive) | > 100 µM (inactive) | > 100 µM (inactive) | > 100 µM (inactive)
2 | CCOC(=O)Nc1nc2cc(Cn3cccc3)ccc2[nH]1 | 1.57 µM (inactive) | 0.925 µM (active) | 1.09 µM (active) | 0.51 µM (active) | 1.65 µM (inactive) | 0.581 µM (active) | 1.22 µM (inactive) | 0.735 µM (active) | 1.7 µM (inactive) | 0.533 µM (active) | 0.828 µM (active) | 4.82 µM (inactive) | 4.03 µM (inactive) | 5.78 µM (inactive) | 0.27 µM (active) | 1.78 µM (inactive) | 1.7 µM (inactive) | 1.5 µM (inactive) | 0.853 µM (active) | 1.13 µM (inactive)
3 | O=C(O)CSc1n[nH]c(=O)[nH]c1=O | > 100 µM (inactive) | > 100 µM (inactive) | > 100 µM (inactive) | > 100 µM (inactive) | > 100 µM (inactive) | > 100 µM (inactive) | > 100 µM (inactive) | > 100 µM (inactive) | > 100 µM (inactive) | > 100 µM (inactive) | > 100 µM (inactive) | > 100 µM (inactive) | > 100 µM (inactive) | > 100 µM (inactive) | > 100 µM (inactive) | > 100 µM (inactive) | > 100 µM (inactive) | > 100 µM (inactive) | > 100 µM (inactive) | 74.8 µM (inactive)
4 | C=CCC(NC(=O)C(CC(=O)OC(C)(C)C)NC(=O)OC(C)(C)C)C(=O)OC (stereo not given) (Boc-Asp(OtBu)-[AllylGly]-OMe; configuration not given here) | > 100 µM (inactive) | 32.4 µM (inactive) | > 100 µM (inactive) | 27.6 µM (inactive) | 20.2 µM (inactive) | 45.8 µM (inactive) | > 100 µM (inactive) | 37.9 µM (inactive) | > 100 µM (inactive) | > 100 µM (inactive) | 48.3 µM (inactive) | > 94.8 µM (inactive) | 99.3 µM (inactive) | > 100 µM (inactive) | 30.1 µM (inactive) | > 100 µM (inactive) | 55.8 µM (inactive) | > 100 µM (inactive) | > 55.2 µM (inactive) | 24.7 µM (inactive)
5 | c1ccc2c(OCC3CO3)ccc(OCC3CO3)c2c1 (stereo not given) | 10.5 µM (inactive) | 3.04 µM (inactive) | 2.11 µM (inactive) | 6.64 µM (inactive) | 3.38 µM (inactive) | 0.27 µM (active) | 4.32 µM (inactive) | 0.343 µM (active) | 17 µM (inactive) | 10.4 µM (inactive) | 3.06 µM (inactive) | 2.51 µM (inactive) | 2.63 µM (inactive) | 1.89 µM (inactive) | 0.321 µM (active) | 2.36 µM (inactive) | 0.897 µM (active) | 12.6 µM (inactive) | 4.14 µM (inactive) | 1.38 µM (inactive)

— ChEMBL document CHEMBL1201862, “PubChem BioAssay data set” (2004)
